Measurements from patent EP4741387A1, “CRYSTAL FORM OF BIPYRIMIDINE COMPOUND, PREPARATION METHOD THEREFOR AND USE THEREOF” (Jiangsu Yahong Meditech Co., Ltd., priority 2023, dated 2025).
≈ marks a conversion by molar mass, not a printed value. Marks after values point to notes of the source that are not given here.

Key:
[1] = Stability subjected to light (LC analysis); format: physicochemical
Protocol: (§1) The HPLC for solubility and stability is carried out using a Phenomenex Luna C18 (2), 3 µm, 2X50 mm chromatographic column.
An appropriate amount of crystal form I solid powder was weighed, and placed in a light-stabilized chamber to irradiate under ICH light intensity conditions (at least greater than 1.2*10^6 Lux*h, illuminance of 4500±500 Lux, and intensity of 200 w*hr/m^2). Samples were collected for LC study and analysis.

[2] = Dynamic vapor sorption (DVS); format: physicochemical
[3] = Solubility study of crystal form I; format: physicochemical; conditions: pH 7.4 phosphate buffer (37°C for 24 hours)
[4] = Trituration study of crystal form I (XRPD); format: physicochemical; conditions: manual trituration 1 min or 3 min, without solvent, with water or ethanol
Protocol: Approximately 50 mg of crystal form I was manually triturated in a mortar using the condition shown in Table 5, and XRPD was carried out to investigate the crystal form of the triturated solid.

[5] = Stability subjected to temperature and humidity (LC analysis); format: physicochemical; conditions: solid powder, 30 days
Protocol: as §1
1 to 3 mg of crystal form I solid powder was weighed, and placed at 60°C or 60°C / 75% RH for 30 days. Samples were collected for LC study and analysis.

[6] = Stability to forced degradation (oxidative and alkali); format: physicochemical; conditions: 1 mg/mL in 90% acetonitrile
Protocol: as §1
3 mg of crystal form I was weighed to formulate a stock solution of 1 mg/mL with 3 mL of 90% acetonitrile. Stability subjected to oxidative degradation (degraded with 3% H2O2 at 40°C for 1.5 hours) and alkali degradation (degraded with 0.1 N NaOH at 40°C for 2 hours) was studied.

[7] = Stability subjected to temperature and humidity (XRPD of crystal form); format: physicochemical; conditions: solid powder, 30 days
Protocol: The instrument is Shimadzu XRD-6000, and the samples are scanned according to the following parameters: The ray source is Cu~Kα target (1.54056 Å).
In addition, an appropriate amount of crystal form I solid powder was weighed, and placed under stability conditions (40°C / 75% RH, 60°C / 75% RH) for 30 days. Samples were collected for XRPD.

[8] = Solubility study of crystal form I; format: physicochemical; conditions: for solubility: thermodynamic from solid
Protocol: as §1
50 µL or 100 µL of the solvent shown in Table 6 was gradually added to 2 mg of crystal form I, and the resulting mixture was manually shaken, vortexed, or sonicated to dissolve. Addition of solvent was stopped if the concentration was below 1 mg/mL. The solubility was calculated based on the sample amount and the total amount of solvent added.

[9] = Pharmacokinetic study of intragastric administration of suspension; format: in vivo; conditions: male SD rats, result in words
Protocol: Crystal form I was used in pharmacokinetic studies in rats. Twelve male SD rats were weighed before administration, and housed using standard feeding methods. Animals were housed in standard cages with free access to food and water during the study. Rats were intragastrically administered the suspension of crystal form I. 40 µL of blood was collected at each sampling point, and placed in an EDTA-containing anticoagulant tube. After centrifugation, 20 µL of plasma was collected. All samples were immediately frozen in a -80°C refrigerator after collection.

photostability ([1]; ICH light conditions, result in words): photostable
change of content of the main component ([1]; solid powder, ICH light intensity conditions (>1.2*10^6 Lux*h, 200 w*hr/m^2)): less than 0.2%
hygroscopicity ([2]; DVS, result in words): non-hygroscopic
crystal form after DVS (XRPD) ([2]; XRPD before and after DVS): did not change
water absorption rate ([2]; from 0% RH to 95% RH, 25°C): 0.02%
solubility at 24 h ([3]; aqueous buffer, thermodynamic from solid): 0.31 mg/mL (≈ 0.57 mM)
solubility [3]: 0.31 * mg/mL
crystal form after trituration (XRPD) [4]: all crystal form I
change of content of the main component ([5]; 60°C / 75% RH): less than 0.2%
change of content of the main component ([5]; 60°C): less than 0.2%
degradation ([6]; alkali degradation: 0.1 NaOH at 40°C for 2 hour): only slight degradation
degradation ([6]; oxidative degradation: 3% H2O2 at 40°C for 1.5 hours): only slight degradation
crystal form change (XRPD) ([7]; 40°C / 75% RH): did not change its crystal form
crystal form change (XRPD) ([7]; 60°C / 75% RH): did not change its crystal form
solubility ([8]; acetone, organic solvent or mixture): > 34.4 mg/mL
solubility ([8]; acetonitrile, organic solvent or mixture): 14.2 to 28.4 mg/mL (≈ 26.1 to 52.2 mM)
solubility ([8]; acetonitrile-water 9:1, organic solvent or mixture): > 32.4 mg/mL
solubility ([8]; ethyl acetate, organic solvent or mixture): 14.9 to 29.8 mg/mL (≈ 27.4 to 54.8 mM)
solubility ([8]; methanol, organic solvent or mixture): > 19.2 mg/mL
solubility ([8]; methanol-water 1:1, aqueous with cosolvent or surfactant or cyclodextrin): < 0.895 mg/mL
solubility ([8]; methanol-water 9:1, organic solvent or mixture): > 33.4 mg/mL
solubility in organic solvent ([8]; organic solvent, result in words): good solubility
solubility ([8]; pH 1.2 hydrochloric acid solution, pH 1.2, simulated gastric fluid): 8.45 to 16.9 mg/mL (≈ 15.5 to 31.1 mM)
bioavailability [9]: high
exposure [9]: high
plasma concentration [9]: high
Structure (SMILES): COc1cnc(-c2c(OC)ncnc2C2CC2)nc1NCC12CCC(c3nc(C(F)(F)F)cn3C)(CC1)CC2 [crystal form I, 4'-cyclopropyl-5,6'-dimethoxy-N-((4-(1-methyl-4-(trifluoromethyl)-1H-imidazol-2-yl)bicyclo[2.2.2]octan-1-yl)methyl)-[2,5'-bipyrimidin]-4-amine]
